Reference: patent US20260347373A1, “HETEROCYCLIC COMPOUNDS, COMPOSITIONS THEREOF, AND METHODS OF TREATMENT THEREWITH” (BeOne Medicines I GmbH, priority 2023, published 2026)
Like-named read-outs stand apart in the source and are kept apart here.

Key:
WT KRAS = WT KRAS (Homo sapiens, UniProt P01116); experiment: KRAS WT Probe Displacement Assay (TR-FRET, GDP-loaded); type: binding
Excerpt: (§1) The synthetic routes of probe 1 and 2, which have been disclosed in PCT/CN2022/070676, are hereby incorporated herein.

KRAS G12D = KRAS G12D (Homo sapiens, UniProt P01116, G12D); experiment: KRAS G12D Probe Displacement Assay (TR-FRET, GDP-loaded); type: binding
KRAS G12D, sequence (P01116 1-188 isoform P01116-2 G12D): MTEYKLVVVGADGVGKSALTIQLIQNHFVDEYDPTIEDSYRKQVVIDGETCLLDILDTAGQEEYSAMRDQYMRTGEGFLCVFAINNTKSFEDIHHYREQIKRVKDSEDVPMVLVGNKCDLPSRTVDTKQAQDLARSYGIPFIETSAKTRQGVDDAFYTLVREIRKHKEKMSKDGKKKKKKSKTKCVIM
Excerpt: as §1

[1] = KRAS^WT Probe Displacement Assay IC50, KRAS WT
[2] = KRAS^G12D Probe Displacement Assay IC50, KRAS G12D
[3] = KRAS WT, read-out: KRAS^WT Probe Displacement Assay IC50
[4] = KRAS G12D, read-out: KRAS^G12D Probe Displacement Assay IC50

WT KRAS, sequence (P01116 1-188 isoform P01116-2): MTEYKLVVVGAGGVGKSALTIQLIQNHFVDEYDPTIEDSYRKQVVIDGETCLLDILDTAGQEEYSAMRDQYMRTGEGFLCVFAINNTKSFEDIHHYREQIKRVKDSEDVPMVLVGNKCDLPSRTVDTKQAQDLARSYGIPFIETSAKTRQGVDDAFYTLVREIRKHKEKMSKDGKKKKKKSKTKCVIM

Row | Structure (SMILES) | IC50 (WT KRAS; [1]) | IC50 (KRAS G12D; [2]) | IC50 (WT KRAS; [3]) | IC50 (KRAS G12D; [4])
1 | Cc1cc(N)cc(-c2nc3c4c(nc(OCC5(CN6CC=CC6)CC5)nc4c2F)N2C[C@H]4CC[C@H](N4)[C@H]2CCO3)c1C(F)(F)F [Example 111, 3-((6aR,7S,10R)-13-((1-((2,5-dihydro-1H-pyrrol-1-yl)methyl)cyclopropyl)methoxy)-1-fluoro-5,6,6a,7,8,9,10,11-octahydro-4-oxa-3,11a,12,14,15-pentaaza-7,10-methanocyclohepta [4,5]cycloocta [1,2,3-de]naphthalen-2-yl)-5-methyl-4-(trifluoromethyl) aniline] | 3 to 1000 nM | < 0.3 nM |  | 
2 | Cc1cc(N)cc(-c2nc3c4c(nc(OCC5(CN(C)C)CC5F)nc4c2F)N2C[C@H]4CC[C@H](N4)[C@H]2CCO3)c1C(F)(F)F (single isomer, unassigned) [Example 136] | 3 to 1000 nM | < 0.3 nM |  | 
3 | CN(C)CC1(COc2nc3c4c(nc(-c5cc(N)cc(Cl)c5C(F)(F)F)c(F)c4n2)OCC[C@@H]2[C@@H]4CC[C@H](CN32)N4)CC1(F)F (mixture of isomers) [Example 18, 3-chloro-5-((6aR,7S,10R)-13-((1-((dimethylamino)methyl)-2,2-difluorocyclopropyl)methoxy)-1-fluoro-5,6,6a,7,8,9,10,11-octahydro-4-oxa-3,11a,12,14,15-pentaaza-7,10-methanocyclohepta[4,5]cycloocta [1,2,3-de]naphthalen-2-yl)-4-(trifluoromethyl)aniline] |  |  | 3 to 1000 nM | < 0.3 nM
4 | Cc1cc(N)cc(-c2nc3c4c(nc(OCC5(CN6CCOC7(CC7)C6)CC5)nc4c2F)N2C[C@H]4CC[C@H](N4)[C@H]2CCO3)c1C(F)(F)F [Example 120, 3-((6aR,7S,10R)-13-((1-((4-oxa-7-azaspiro[2.5]octan-7-yl)methyl)cyclopropyl)methoxy)-1-fluoro-5,6,6a,7,8,9,10,11-octahydro-4-oxa-3,11a,12,14,15-pentaaza[7,10]methanocyclohepta [4,5]cycloocta[1,2,3-de]naphthalen-2-yl)-5-methyl-4-(trifluoromethyl)aniline] |  |  | 0.3 to 3 nM | < 0.3 nM
5 | Cc1cc(N)cc(-c2nc3c4c(nc(OCC5(CN6CCC7(COC7)C6)CC5)nc4c2F)N2C[C@H]4CC[C@H](N4)[C@H]2CCO3)c1C(F)(F)F [Example 189, 3-((6aR,7S,10R)-13-((1-((2-oxa-6-azaspiro[3.4]octan-6-yl)methyl)cyclopropyl)methoxy)-1-fluoro-5,6,6a,7,8,9,10,11-octahydro-4-oxa-3,11a,12,14,15-pentaaza[7,10]methanocyclohepta[4,5]cycloocta[1,2,3-de]naphthalen-2-yl)-5-methyl-4-(trifluoromethyl)aniline] |  |  | 3 to 1000 nM | < 0.3 nM
6 | Cc1cc(N)cc(-c2nc3c4c(nc(OCC5(CN6CCSCC6)CC5)nc4c2F)N2C[C@H]4CC[C@H](N4)[C@H]2CCO3)c1C(F)(F)F [Example 159, 3-((6aR,7S,10R)-1-fluoro-13-((1-(thiomorpholinomethyl)cyclopropyl)methoxy)-5,6,6a,7,8,9,10,11-octahydro-4-oxa-3,11a,12,14,15-pentaaza-7,10-methanocyclohepta[4,5]cycloocta[1,2,3-de]naphthalen-2-yl)-5-methyl-4-(trifluoromethyl)aniline] |  |  | 0.3 to 3 nM | < 0.3 nM
7 | CO[C@H]1CN2C[C@H](F)C[C@]2(COc2nc3c4c(nc(-c5cc(N)cc(Cl)c5C(F)(F)F)c(F)c4n2)OCC[C@@H]2[C@@H]4CC[C@H](CN32)N4)C1 [Example 215, 3-chloro-5-((6aR,7S,10R)-1-fluoro-13-(((2R,6R,7aS)-2-fluoro-6-methoxytetrahydro-1H-pyrrolizin-7a(5H)-yl)methoxy)-5,6,6a,7,8,9,10,11-octahydro-4-oxa-3,11a,12,14,15-pentaaza-7,10-methanocyclohepta[4,5]cycloocta[1,2,3-de]naphthalen-2-yl)-4-(trifluoromethyl)aniline] |  |  | 3 to 1000 nM | < 0.3 nM
